Blank lines part the entries; values can stand above or below the substance they belong to.
Key:
[1] = biological target: IGRP206-214/H-2K^d on antigen-presenting cells (mouse) (UniProt P01902); assay: cell-based or functional assay
8.3 CTL = assay: Epitope reconstitution 51Cr-release cytotoxicity assay, peptide-pulsed RMA-S/K^d target cells; assay type: cell-based, mouse; details: peptide-pulsed RMA-S/K^d targets
Method: 8.3 CTL were generated by culturing splenocytes from 8.3-NOD mice with mitomycin C-treated NOD splenocytes pulsed with NRP-A7 peptide as described (DiLorenzo et al, 2002). CTL were used in 16 h ^51Cr-release cytotoxicity assays to test for recognition of peptide-pulsed RMA-S/K^d target cells (provided by M. Bevan, University of Washington, Seattle, Wash., USA) at an effector to target ratio of 40:1 as described (DiLorenzo et al., 2002). Synthetic peptides were used at concentrations as indicated in the figures, and 7×10^8, 6×10^8, and 2×10^9 NIT-1-cell-equivalents of peptide were used for assays of first-, second-, and third-dimension HPLC fractions, respectively.

female NOD mice = assay: Repeated peptide treatment of female NOD mice, diabetes development and islet-associated CD8+ T-cells; assay type: in vivo, mouse; details: for avidity of NRP-V7 tetramer binding by islet-associated CD8+ cells of treated mice: NRP-I4 100 μg/injection, NRP-A7 50 μg/injection, vs TUM-treated mice; for protection from diabetes by chronic treatment (discussion summary): intermediate doses NRP-A7, high doses NRP-I4, low or high doses NRP-V7, high doses IGRP206-214; for absolute number of NRP-V7-reactive T-cells in the islets: NRP-A7 50 μg/injection vs. TUM-treated mice; for T-cell responses against IGRP epitopes of islet-derived CD8+ T-cells of treated mice: for IGRP206-214 treatment: other IGRP epitopes
Method: Cohorts of 3-to-4 week-old female NOD mice were injected with 1-100 μg of peptide in PBS intraperitoneally. This was repeated every 2 weeks until the 7-8th week, and every 3 weeks thereafter. Mice were monitored for development of hyperglycemia until at least the 28th week of age. The 8.3-CD8+ T-cell tolerogenic activity of APLs was determined by treating 8-15 wk-old 8.3-NOD mice with one i.p. injection of 100 μg of peptide. […] Mice were sacrificed a week after treatment, and their spleens analyzed for presence of 8.3-CD8+ T-cells by flow cytometry.
We next investigated whether the anti-diabetogenic activity of the above APLs was a function of “avidity”, as defined not only by the affinity of individual peptide/MHC complexes for specific TCRs, but also by the absolute number of peptide/MHC complexes that are available for recognition (i.e. dose of peptide). This was done by treating cohorts of female NOD mice with repeated injections of TUM (negative control), NRP-I4, NRP-A7 and NRP-V7 (in PBS) over a wide dose range, and by following the mice for development of diabetes (FIG. 7A, top). Starting at 3-4 weeks of age, mice received one injection of peptide i.p. every 2 (first three doses) or 3 weeks after initiation of treatment. Mice were sacrificed at diabetes onset or at the end of the follow-up period (28-32 weeks), to investigate the effects of treatment on the size and tetramer-binding avidity of the islet-associated IGRP206-214-reactive CD8+ T-cell subpopulation (FIG. 7A, bottom).

8.3-CD8+ T-cells = assay: Proliferation and cytokine secretion of naive splenic 8.3-CD8+ T-cells with peptide-pulsed NOD splenocytes; assay type: cell-based, mouse; details: for agonistic activity on 8.3-CD8+ T-cells: FIG. 5, peptide 0.01-1 μM
Method: Naïve or NRP-A7-differentiated (see below) splenic CD8+ T-cells from 8.3-NOD mice (2×10^4/well) were incubated, in duplicate, with peptide-pulsed (0.01, 0.1 and 1 μM), γ-irradiated (3,000 rad) NOD splenocytes (10^5/well) for 3 days at 37° C. in 5% CO2. Cultures were pulsed with 1 μCi of (^3H)-thymidine during the last 18 hours of culture and harvested.
(§1) Naïve splenic CD8+ T-cells from 8.3-NOD mice (2×10^4/well) were incubated with peptide-pulsed (0.001, 0.01, 0.1, 1 and/or 10 μM) γ-irradiated NOD splenocytes (10^5/well) in 96-well plates for 48 hours at 37° C. Short-term islet-derived T-cell lines from peptide-treated or unmanipulated NOD mice (adjusted at 2×10^4 CD8+ T-cells/well) were tested the same way, but using 10 μM of peptide. The supernatants (100 μl/well) were assayed in duplicate for IL-2, IL-4, and/or IFN-γ content by ELISA using commercially available kits (Genzyme Diagnostics, Cambridge, Mass.).

AI12.B1.3 TCR = assay: TCR transfectant peptide recognition, IL-2 release (58 α−β− cells, RMA-S/K^d presenters); assay type: cell-based, mouse; details: FIG. 2
Source text: (§2) T cell receptors from the previously isolated NOD-derived β cell-autoreactive class I MHC-restricted T cell clones AI4, AI12.B1.1, AI12.B1.2, AI12.B1.3, AI15.A10, AI15.F5 (DiLorenzo et al., 1998), and 8.3 (Verdaguer et al., 1997) were expressed in the TCR^− T cell hybridoma 58α^−β^− (engineered to express the TCR ζ chain and CD8αβ and provided by H.-C. Chang, Dana Farber, Boston, Mass., USA) as described (Serreze et al., 2001). TCR expression was verified by flow cytometric analysis of growing clones using an antibody to CD3ε (145-2C11). RMA-S/K^d cells incubated overnight at 28° C. were used to present exogenously added synthetic peptides at concentrations as indicated in the figures. Peptide recognition by the TCR transfectants was measured by IL-2 production as previously described (Serreze et al., 2001).

AI15.F5 TCR = assay: as above; assay type: cell-based, mouse; details: FIG. 2
Source text: as §2

NOD female mice = assay: Protection of NOD mice from type 1 diabetes (Example 2); assay type: in vivo, mouse; details: for mice that developed diabetes: 100 micrograms peptide intraperitoneally from 3.5 weeks of age, read at ~25 weeks-old
Method: Ten NOD female mice were treated with 100 micrograms of IGRP206-214 peptide (in phosphate-buffered saline) intraperitoneally, starting at 3.5 weeks of age. Forty mice were used as controls. Each control mouse was treated with the TUM peptide ([…] NO:15). The mice received one injection of peptide every two weeks for the first three injections, and then one injection every three weeks thereafter. At 25 weeks-old, two (20%) of the IGRP206-214 mice developed diabetes, vs. 26 control mice ( 65%). […] There were no significant differences in interferon-γ production vs. cells stimulated with the negative control peptide TUM. In one of these two mice, the islets contained T-cells that responded to two IGRP peptides other than IGRP206-214.

H-2K^d = biological target: T1, H-2K^d (Mus musculus, UniProt P01902); assay: H-2K^d stabilization assay on RMA-S/K^d cells (Example 1); assay type: binding; details: FIG. 3, mean fluorescence intensity of H-2K^d
T1 construct: expressed in transfected cells; host or cells: RMA-S/K^d cells
T1 sequence (P01902 22-368): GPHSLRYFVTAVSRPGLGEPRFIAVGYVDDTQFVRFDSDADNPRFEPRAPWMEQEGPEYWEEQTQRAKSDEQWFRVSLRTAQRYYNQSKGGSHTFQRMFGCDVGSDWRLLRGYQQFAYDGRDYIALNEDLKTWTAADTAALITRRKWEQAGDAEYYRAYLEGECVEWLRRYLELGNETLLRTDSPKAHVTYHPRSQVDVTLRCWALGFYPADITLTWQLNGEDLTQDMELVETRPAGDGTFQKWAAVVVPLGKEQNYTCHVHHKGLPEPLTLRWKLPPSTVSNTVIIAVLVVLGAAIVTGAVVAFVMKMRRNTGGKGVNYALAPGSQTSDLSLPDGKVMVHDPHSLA
T1 sequence (P01887 21-119 partner): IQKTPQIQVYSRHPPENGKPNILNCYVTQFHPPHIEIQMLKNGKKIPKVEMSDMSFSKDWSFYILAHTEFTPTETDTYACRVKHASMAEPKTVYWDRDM
Method: RMA-S/K^d cells, cultured overnight at 28° C., were pulsed with peptides in complete DMEM for 1 h at 28° C., incubated at 37° C. for 3 h, washed, stained with anti-H-2K^d monoclonal antibody SF1-1.1, counter-stained with FITC-conjugated polyclonal goat anti-mouse antibody, and analyzed by flow cytometry. Data were calculated by subtracting mean fluorescence intensity of H-2K^d on non-peptide-pulsed cells from that on peptide-pulsed cells.

[2] = system: CD8+ cells derived from pancreatic islets of wild-type NOD mice; assay: Tetramer staining and avidity of NOD islet-derived CD8+ T-cells (Example 3); assay type: cell-based, mouse; details: FIG. 9B, at least some animals
Method: Tetramers were prepared and used as described in (Amrani et al., 2000). Hand-picked pancreatic islets from individual mice were cultured in complete media supplemented with 0.5 U/ml of Takeda rhIL-2 for 7-9 days. T-cells (10^6 per 20 μl) were then stained for 45 minutes on ice in 20 μl of wash media (0.2% sodium bicarbonate, 0.1% sodium azide and 2% FBS in RPMI-1640) containing anti-CD8-FITC (clone YTS169.4; 0.5 μg) and tetramer (85.5 nM). After washing, the cells were resuspended in wash media and analyzed with a flow cytometer (Becton Dickinson). For the analysis of tetramer staining at equilibrium, T-cells were stained for 2 hours at room temperature with 20 μl of wash media (0.2% sodium bicarbonate, 0.1% sodium azide and 2% FBS in RPMI-1640) containing anti-CD8α-FITC (clone YTS169.4; 0.5 μg) and different concentrations of tetramers (8.55, 17.1, 42.75 and 85.5 nM). After washing, cells were resuspended in 100 μl of wash media, fixed in 0.4% paraformaldehide and analyzed with a flow cytometer. The apparent Kd values were determined by plotting the negative reciprocal of the slope of the line fit to Scatchard plots of fluorescence units (median of CD8+ population tetramer staining)/nM versus fluorescence units.

[3] = system: CD8+ cells propagated from islets of NOD mice; assay: IFN-γ secretion by islet-derived CD8+ T-cells in response to IGRP peptides; assay type: cell-based, mouse; details: peptide 10 μM, pre-diabetic or acutely diabetic NOD mice
Source text: Islet-derived CD8+ T-cells from peptide-treated or unmanipulated NOD mice were generated by culturing pancreatic islets in complete media (CM: RPMI 1640 media containing 10% fetal bovine serum), containing 0.5 U/ml Takeda rhIL-2 (10-50 islets/well in 24-well plates). The in vivo-activated, IL-2R+ lymphocytes migrating from islets into the culture media were used in functional assays within 6-9 days of islet isolation (Amrani et al., 2000; Anderson et al., 1999).
as §1

[4] = IFN-γ secretion, Table II, FIG. 10A

half-maximal activity, 51Cr-release assay with 8.3 CTL on peptide-pulsed RMA-S/K^d cells [1]: 50 µM
Substance: 8.3 T cell receptor (TCR)

Substance: KYCLITIFL [G6Pase, reference compound]
recognition by 8.3 CTL (8.3 CTL): not recognized by 8.3 CTL

Substance: KYNIANWFL [NRP-I4]
anti-diabetogenic activity (female NOD mice; 100 μg/injection): highly anti-diabetogenic
anti-diabetogenic activity (female NOD mice; <20 μg/injection): not protective at all
avidity of NRP-V7 tetramer binding by islet-associated CD8+ cells of treated mice (female NOD mice): significantly lower avidity
protection from diabetes by chronic treatment (discussion summary) (female NOD mice): near complete protection from diabetes
triggering IFN-γ secretion by naive 8.3-CD8+ T-cells (8.3-CD8+ T-cells; FIG. 5): quite efficient
agonistic activity on 8.3-CD8+ T-cells (8.3-CD8+ T-cells): partial agonist
inducing other responses of naive 8.3-CD8+ T-cells (8.3-CD8+ T-cells; FIG. 5, proliferation, IL-2): significantly less efficient than NRP-A7

Substance: KYNKANAFL [NRP-A7]
anti-diabetogenic activity (female NOD mice; 50 μg/injection): protected mice from diabetes
anti-diabetogenic activity (female NOD mice; 100 μg/injection): ineffective
percentages and absolute numbers of NRP-V7-reactive CD8+ cells in the islets (female NOD mice; 100 μg/injection): significantly reduced numbers
absolute number of NRP-V7-reactive T-cells in the islets (female NOD mice): 0.6×10^5±0.3
avidity of NRP-V7 tetramer binding by islet-associated CD8+ cells of treated mice (female NOD mice): accumulation of low avidity IGRP206-214-reactive CD8+ T-cells within islets
protection from diabetes by chronic treatment (discussion summary) (female NOD mice): near complete protection from diabetes
agonistic activity on 8.3-CD8+ T-cells (8.3-CD8+ T-cells): agonist
recognition by AI12.B1.3 (IL-2 release) (AI12.B1.3 TCR): recognized
recognition by AI15.F5 (IL-2 release) (AI15.F5 TCR): did not recognize

Substance: KYQAVTTTL [TUM, reference compound]
mice that developed diabetes (NOD female mice): ~65%
T-cell responses against IGRP epitopes of islet-derived CD8+ T-cells of treated mice (female NOD mice; [4]): did not significantly increase
absolute number of NRP-V7-reactive T-cells in the islets (female NOD mice): 1×10^5±0.3

Substance: LYLVCGERG [INS B15-23]
binding to H-2K^d (H-2K^d): barely detectable even at the highest peptide concentration tested

binding to H-2K^d (H-2K^d): improved binding to H-2K^d
Substance: LYLVCGERI [INS-I9]

Substance: SFCKSASIP [peptide 72, text numbering of the IGRP library]
presence of peptide-reactive CD8+ T-cells in islets by tetramers [2]: confirmed the presence
mice with islet CD8+ T-cells responding to the peptide (IFN-γ secretion) [3]: a significant number of mice also mounted responses

Substance: TYYGFLNFM [peptide 39, text numbering of the IGRP library]
presence of peptide-reactive CD8+ T-cells in islets by tetramers [2]: confirmed the presence
mice with islet CD8+ T-cells responding to the peptide (IFN-γ secretion) [3]: a significant number of mice also mounted responses

binding to H-2K^d (H-2K^d): good MEC binding
Substance: VYLKTNVFL [IGRP206-214]
mice that developed diabetes (NOD female mice): 20%
IGRP206-214-reactive T-cells in islets of treated mice that developed diabetes (NOD female mice; NRP-V7/K^d tetramer staining): did not have IGRP206-214-reactive T-cells in islets
recognition by 8.3 CTL (8.3 CTL): is the natural β cell peptide recognized by 8.3
age at onset of diabetes (female NOD mice; 75-100 μg/injection): delayed
incidence of diabetes (female NOD mice; 75-100 μg/injection): did not significantly reduce
intra-islet IGRP206-214-reactive CD8+ T-cell subpopulation (female NOD mice; 75-100 μg/injection, flow cytometry and functional assays): near complete deletion
anti-IGRP206-214 response of islet-derived CD8+ T-cells of treated mice (female NOD mice; [4]): reduced both the frequency and magnitude
T-cell responses against IGRP epitopes of islet-derived CD8+ T-cells of treated mice (female NOD mice; [4]): increased the frequency and magnitude
protection from diabetes by chronic treatment (discussion summary) (female NOD mice): only afforded marginal protection from disease
recognition by AI12.B1.3 (IL-2 release) (AI12.B1.3 TCR): recognized
recognition by AI15.F5 (IL-2 release) (AI15.F5 TCR): responded
mice with islet CD8+ T-cells responding to the peptide (IFN-γ secretion) [3]: most mice

Substance: YLKTNVFLF [IGRP207-215]
cross-reactivity with IGRP206-214, ability to elicit 8.3-CD8+ T-cell responses (8.3-CD8+ T-cells; data not shown): cross-reactive with IGRP206-214
mice with islet CD8+ T-cells responding to the peptide (IFN-γ secretion) [3]: most mice
